This note sets out measurements from patent US9957274B2, “Indane inhibitors of EED and methods of their use” (AbbVie Inc., priority 2016, dated 2018).

Test [1] deals with H3K27me3 in G401 cells. Nature of the test: H3K27me3 AlphaLISA assay in G401 cells. It counts as cell-based. The following applies: Homo sapiens, G-401, 144 h, 6 days with compound. As for the experimental part: G401 cells (ATCC catalog # CRL-1441) were maintained in McCoy's 5a medium (ATCC) supplemented with 10% heat-inactivated FBS (HyClone) at 37° C. in a humidified CO2 incubator. OCILY19 cells (DSMZ catalog #ACC 528) were maintained in IMDM (Invitrogen) supplemented with 10% human serum (Sigma) at 37° C. in a humidified CO2 incubator. 5,000 cells were plated into each well of 96-well Corning CellBing cell culture plates and incubated overnight at 37° C. in a humidified CO2 incubator. […] The cell culture plates were then incubated for 6 more days. H3K27me3 AlphaLISA assay was performed on the cell culture samples by using AlphaLISAR® H3K27me3 Cellular Detection Kit (PerkinElmer) and 96-well white half-area plates (PerkinElmer).
A general note: Alpha assays give light when donor and acceptor beads are brought close together.

Test [2] deals with EED (Homo sapiens, UniProt O75530). Nature of the test: EED TR-FRET Binding Assay (modified LanthaScreen competition assay). An outline of the steps:
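Competition binding in a modified LanthaScreen format, in 20 mM Tris-HCl pH 7.5, 200 mM NaCl, 0.01% Tween-20, 10 uM DTT and 0.05% BSA. Reactions ran 1 hour at 25° C before TR-FRET detection.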
Background: In TR-FRET formats the signal depends on donor and acceptor labels being close together.

The subject of test [3] is Pfeiffer cells. Nature of the test: CTG cell viability assay (CellTiter-Glo). It counts as cell-based. Conditions: Homo sapiens, 240 h; Pfeiffer cells, 10 days with compound, CellTiter-Glo; read-out: Cell Proliferation IC50. As for the experimental part:
1,000 cells were plated into each well of 96-well Corning CellBing cell culture plates and incubated overnight at 37° C. in a humidified CO2 incubator. […] The cell culture plates were then incubated for 10 more days. CTG cell viability assay was performed on the cell culture samples by using CellTiter-Glo® Luminescent Cell Viability Assay Kit (Promega).
Background: In ATP-based viability assays light output follows the ATP content of the culture.

The test system of test [4] is H3K27me3 in OCILY19 cells. Nature of the test: H3K27me3 AlphaLISA assay in OCILY19 cells. It counts as cell-based. The following applies: Homo sapiens, OCI-LY19, 144 h, 6 days with compound, read-out: OCILY-19 IC50. As for the experimental part:
5,000 cells were plated into each well of 96-well Corning CellBing cell culture plates and incubated overnight at 37° C. in a humidified CO2 incubator. […] The cell culture plates were then incubated for 6 more days. H3K27me3 AlphaLISA assay was performed on the cell culture samples by using AlphaLISAR® H3K27me3 Cellular Detection Kit (PerkinElmer) and 96-well white half-area plates (PerkinElmer).

Chain of EED (O75530 whole entry): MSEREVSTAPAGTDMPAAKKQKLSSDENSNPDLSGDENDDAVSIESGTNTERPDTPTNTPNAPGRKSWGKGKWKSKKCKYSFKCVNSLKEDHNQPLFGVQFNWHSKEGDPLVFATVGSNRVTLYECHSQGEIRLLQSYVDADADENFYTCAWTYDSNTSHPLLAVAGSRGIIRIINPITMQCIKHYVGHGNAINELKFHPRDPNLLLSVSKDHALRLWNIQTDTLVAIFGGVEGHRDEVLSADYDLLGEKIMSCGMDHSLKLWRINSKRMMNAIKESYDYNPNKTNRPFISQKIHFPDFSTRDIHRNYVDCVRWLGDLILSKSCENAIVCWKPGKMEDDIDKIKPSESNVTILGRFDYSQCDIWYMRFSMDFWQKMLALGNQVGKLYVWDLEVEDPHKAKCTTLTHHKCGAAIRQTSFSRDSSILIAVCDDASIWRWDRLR

With `CN(C)[C@@H]1CN(C2CCc3cccc(F)c32)C[C@H]1c1ccc(N2CCN(c3ccccn3)CC2)cc1` (mixture of isomers) [Example 75, rac-(3S,4R)-1-(7-fluoro-2,3-dihydro-1H-inden-1-yl)-N,N-dimethyl-4-{4-[4-(pyridin-2-yl)piperazin-1-yl]phenyl}pyrrolidin-3-amine], the IC50 is 2300 nM in test [1], 0.906 nM in test [2], 1760 nM in test [3] and 3170 nM in test [4].

`CN(C)C(=O)c1ccc2c([C@H]3CN(C4CCc5cccc(F)c54)C[C@@H]3N(C)C)cn(C)c2c1` (mixture of isomers) [Example 87, rac-3-[(3S,4R)-4-(dimethylamino)-1-(7-fluoro-2,3-dihydro-1H-inden-1-yl)pyrrolidin-3-yl]-N,N,1-trimethyl-1H-indole-6-carboxamide]: the IC50 is 62.6 nM in test [1], 0.481 nM in test [2], 94.1 nM in test [3] and 178 nM in test [4].

Turning to `CN(C)[C@H]1CN(C2CCc3cccc(F)c32)C[C@@H]1c1cn(C)c2c(C(=O)N3CC(F)C3)cccc12` (mixture of isomers) [Example 103, rac-{3-[(3S,4R)-4-(dimethylamino)-1-(7-fluoro-2,3-dihydro-1H-inden-1-yl)pyrrolidin-3-yl]-1-methyl-1H-indol-7-yl}(3-fluoroazetidin-1-yl)methanone], the IC50 in test [1] was 30.6 nM; in test [2], 1.01 nM; in test [3], 64.8 nM; in test [4], 183 nM.

As for `CN(C)[C@H]1CN(C2CCc3cccc(F)c32)C[C@@H]1c1cn(C)c2c(C(=O)N3CC(O)C3)cccc12` (mixture of isomers) [Example 106, rac-{3-[(3S,4R)-4-(dimethylamino)-1-(7-fluoro-2,3-dihydro-1H-inden-1-yl)pyrrolidin-3-yl]-1-methyl-1H-indol-7-yl}(3-hydroxyazetidin-1-yl)methanone], the IC50 worked out at 34.4 nM in test [1], 0.782 nM in test [2], 74.9 nM in test [3] and 69.5 nM in test [4].

Regarding `CN(C)[C@H]1CN(C2CCc3cccc(F)c32)C[C@@H]1c1cn(C)c2cc(C(=O)N3CC(O)C3)ccc12` (mixture of isomers) [Example 107, rac-{3-[(3S,4R)-4-(dimethylamino)-1-(7-fluoro-2,3-dihydro-1H-inden-1-yl)pyrrolidin-3-yl]-1-methyl-1H-indol-6-yl}(3-hydroxyazetidin-1-yl)methanone], the IC50 in test [1] amounted to 84 nM; in test [2], 1.08 nM; in test [3] it was 284 nM; in test [4], 497 nM.

Consider `CN(C)[C@H]1CN(C2CCc3cccc(F)c32)C[C@@H]1c1cn(C)c2c(C(=O)N3CC(S(C)(=O)=O)C3)cccc12` (mixture of isomers) [Example 110, rac-{3-[(3S,4R)-4-(dimethylamino)-1-(7-fluoro-2,3-dihydro-1H-inden-1-yl)pyrrolidin-3-yl]-1-methyl-1H-indol-7-yl}[3-(methanesulfonyl)azetidin-1-yl]methanone], for which the IC50 in test [1] was 225 nM; in test [2], 1.05 nM; in test [3], 111 nM; in test [4], 379 nM.

Consider `CN(C)[C@H]1CN(C2CCc3cccc(F)c32)C[C@@H]1c1cn(C)c2c(C(=O)N3CCNCC3)cccc12` (mixture of isomers) [Example 119, rac-{3-[(3S,4R)-4-(dimethylamino)-1-(7-fluoro-2,3-dihydro-1H-inden-1-yl)pyrrolidin-3-yl]-1-methyl-1H-indol-7-yl}(piperazin-1-yl)methanone], for which the IC50 in test [1] came to 120 nM; in test [2], 1.99 nM; in test [3], 247 nM; in test [4], 214 nM.

Turning to `CN(C)[C@H]1CN(C2CCc3cccc(F)c32)C[C@@H]1c1cn(C)c2c(C(=O)N3CCN(S(=O)(=O)N(C)C)CC3)cccc12` (mixture of isomers) [Example 124, rac-4-{3-[(3S,4R)-4-(dimethylamino)-1-(7-fluoro-2,3-dihydro-1H-inden-1-yl)pyrrolidin-3-yl]-1-methyl-1H-indole-7-carbonyl}-N,N-dimethylpiperazine-1-sulfonamide], the IC50 stood at 86.4 nM in test [1], 1.56 nM in test [2], 349 nM in test [3] and 207 nM in test [4].

As to `CN1CCN(c2cccc3c([C@H]4CN(C5CCc6cccc(F)c65)C[C@@H]4N(C)C)cn(C)c23)CC1=O` (mixture of isomers) [Example 129, rac-4-{3-[(3S,4R)-4-(dimethylamino)-1-(7-fluoro-2,3-dihydro-1H-inden-1-yl)pyrrolidin-3-yl]-1-methyl-1H-indol-7-yl}-1-methylpiperazin-2-one], the IC50 was found to be 186 nM in test [1], 0.739 nM in test [2], 98.1 nM in test [3] and 102 nM in test [4].

With `CN(C)C(=O)N1CCN(c2cccc3c([C@H]4CN(C5CCc6cccc(F)c65)C[C@@H]4N(C)C)cn(C)c23)CC1` (mixture of isomers) [Example 131, rac-4-{3-[(3S,4R)-4-(dimethylamino)-1-(7-fluoro-2,3-dihydro-1H-inden-1-yl)pyrrolidin-3-yl]-1-methyl-1H-indol-7-yl}-N,N-dimethylpiperazine-1-carboxamide], the IC50 turned out to be 57.3 nM in test [1], 0.406 nM in test [2], 122 nM in test [3] and 158 nM in test [4].

On to `CN(C)[C@H]1CN(C2CCc3cccc(F)c32)C[C@@H]1c1cn(C)c2c(C(=O)N3CCN(S(=O)(=O)c4cncn4C)CC3)cccc12` (mixture of isomers) [Example 135, rac-{3-[(3S,4R)-4-(dimethylamino)-1-(7-fluoro-2,3-dihydro-1H-inden-1-yl)pyrrolidin-3-yl]-1-methyl-1H-indol-7-yl}[4-(1-methyl-1H-imidazole-5-sulfonyl)piperazin-1-yl]methanone], for which the IC50 was 108 nM in test [1], 1.45 nM in test [2], 115 nM in test [3] and 719 nM in test [4].

Take `Cc1n[nH]c(C)c1S(=O)(=O)N1CCN(C(=O)c2cccc3c([C@H]4CN(C5CCc6cccc(F)c65)C[C@@H]4N(C)C)cn(C)c23)CC1` (mixture of isomers) [Example 136, rac-{3-[(3S,4R)-4-(dimethylamino)-1-(7-fluoro-2,3-dihydro-1H-inden-1-yl)pyrrolidin-3-yl]-1-methyl-1H-indol-7-yl}[4-(3,5-dimethyl-1H-pyrazole-4-sulfonyl)piperazin-1-yl]methanone]: the IC50 in test [1] was 332 nM; in test [2] it was 2.05 nM; in test [3] it was 1520 nM; in test [4], 617 nM.

As to `CN(C)[C@H]1CN(C2CCc3cccc(F)c32)C[C@@H]1C1CCN(c2cccnc2)CC1` (mixture of isomers) [Example 149, rac-(3R,4S)-1-(7-fluoro-2,3-dihydro-1H-inden-1-yl)-N,N-dimethyl-4-[1-(pyridin-3-yl)piperidin-4-yl]pyrrolidin-3-amine], the IC50 in test [1] was determined as 636 nM; in test [2], 2.58 nM; in test [3] it was 970 nM; in test [4] it was 1140 nM.

Take `CN(C)[C@H]1CN(C2CCc3cccc(F)c32)C[C@@H]1C1CCN(c2ccccn2)CC1` (mixture of isomers) [Example 152, rac-(3R,4S)-1-(7-fluoro-2,3-dihydro-1H-inden-1-yl)-N,N-dimethyl-4-[1-(pyridin-2-yl)piperidin-4-yl]pyrrolidin-3-amine]: the IC50 was determined as 476 nM in test [1], 2.04 nM in test [2], 804 nM in test [3] and 1790 nM in test [4].
